Data: ChEMBL document CHEMBL1770073, “Synthesis of cinnamoyl ketoamides as hybrid structures of antioxidants and calpain inhibitors” (Bioorg Med Chem Lett, 2011)

Experiments:
Liver = test: Antioxidant activity in rat liver homogenates assessed as inhibition of lipid peroxidation by measuring formation of thiobarbituric acid-reactive substance after 30 mins; assay type: functional, tissue-based; conditions: 0.5 h
[1] = tested on: Radical scavenging activity; test: Antioxidant activity assessed as DPPH free radical scavenging activity after 30 mins; assay type: functional
[2] = Antioxidant activity assessed as xanthine-xanthine oxidase generated superoxide anion scavenging after 20 mins; assay type: functional
[3] = target: T1, Calpain-1 catalytic subunit (Homo sapiens, UniProt P07384); test: Inhibition of human erythrocytes mu-calpain using Suc-Leu-Tyr-AMC fluorogenic substrate after 30 mins by spectrofluorimetry
T1 sequence (P07384 whole entry): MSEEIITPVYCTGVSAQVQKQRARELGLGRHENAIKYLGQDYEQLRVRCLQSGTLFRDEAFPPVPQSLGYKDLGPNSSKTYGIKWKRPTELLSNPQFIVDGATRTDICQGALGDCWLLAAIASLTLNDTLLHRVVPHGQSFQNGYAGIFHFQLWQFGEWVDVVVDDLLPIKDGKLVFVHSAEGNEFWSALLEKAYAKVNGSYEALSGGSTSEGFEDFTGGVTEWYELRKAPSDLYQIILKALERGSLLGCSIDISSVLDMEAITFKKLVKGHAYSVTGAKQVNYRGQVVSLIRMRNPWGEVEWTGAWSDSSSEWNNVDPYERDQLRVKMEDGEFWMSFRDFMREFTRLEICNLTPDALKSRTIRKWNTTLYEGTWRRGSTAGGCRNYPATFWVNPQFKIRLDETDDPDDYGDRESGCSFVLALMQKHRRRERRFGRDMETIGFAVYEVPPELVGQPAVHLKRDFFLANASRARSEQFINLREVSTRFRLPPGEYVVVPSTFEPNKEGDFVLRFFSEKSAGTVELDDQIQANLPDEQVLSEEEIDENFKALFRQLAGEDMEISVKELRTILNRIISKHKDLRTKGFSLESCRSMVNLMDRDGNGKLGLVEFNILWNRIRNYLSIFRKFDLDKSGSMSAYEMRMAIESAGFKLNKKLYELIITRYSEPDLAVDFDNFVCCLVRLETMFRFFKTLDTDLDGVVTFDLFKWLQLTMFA

IC50 (Liver) [µM] | IC50 [1] [µM] | IC50 [2] [µM] | IC50 [3] [µM] | SMILES
> 100 | 30.8 | > 100 | – | O=C1O[C@H]([C@@H](O)CO)C(O)=C1O [ASCORBIC ACID]
> 100 | > 100 | > 100 | 1.38 | CCCC/C(=C\c1ccc(OC)c(OC)c1)C(=O)N[C@@H](Cc1ccccc1)C(=O)C(=O)NCCc1ccc(OC)cc1 (stereo in doubt)
> 100 | > 100 | > 100 | – | COc1ccc(OC)c(C(=O)CCC(=O)N[C@@H](Cc2ccccc2)C(=O)C(N)=O)c1
6.09 | 45.5 | 15.5 | 0.61 | CC/C(=C\c1ccc(O)c(O)c1)C(=O)N[C@@H](Cc1ccccc1)C(=O)C(=O)NCc1ccccc1 (stereo in doubt)
6.4 | 46.1 | 29.2 | 0.46 | CC/C(=C\c1ccc(O)c(O)c1)C(=O)N[C@@H](Cc1ccccc1)C(=O)C(=O)NCCc1ccc(OC)cc1 (stereo in doubt)
6.15 | 42.2 | 27.1 | 0.36 | CCC/C(=C\c1ccc(O)c(O)c1)C(=O)N[C@@H](Cc1ccccc1)C(=O)C(=O)NCc1ccccc1 (stereo in doubt)
71.4 | – | – | – | Cc1c(C)c2c(c(C)c1O)CCC(C)(C(=O)O)O2 (stereo unspecified) [TROLOX]
5.71 | 48.6 | 38 | 0.13 | CCC/C(=C\c1ccc(O)c(O)c1)C(=O)N[C@@H](Cc1ccccc1)C(=O)C(=O)NCCc1ccc(OC)cc1 (stereo in doubt)
7.53 | 40.4 | 31.2 | 6.07 | O=C(/C=C/c1ccc(O)c(O)c1)N[C@@H](Cc1ccccc1)C(=O)C(=O)NCc1ccccc1
6.06 | 44.6 | 41.7 | 0.32 | CC(C)C/C(=C\c1ccc(O)c(O)c1)C(=O)N[C@@H](Cc1ccccc1)C(=O)C(=O)NCc1ccccc1 (stereo in doubt)
7.34 | 36.7 | 30.9 | 0.67 | CCCC/C(=C\c1ccc(O)c(O)c1)C(=O)N[C@@H](Cc1ccccc1)C(=O)C(=O)NCc1ccccc1 (stereo in doubt)
> 100 | > 100 | > 100 | 0.07 | Cc1c(C(=O)N[C@@H](Cc2ccccc2)C(=O)C(N)=O)oc2ccccc2c1=O
5.88 | 38.9 | 41.4 | 0.5 | CCCC/C(=C\c1ccc(O)c(O)c1)C(=O)N[C@@H](Cc1ccccc1)C(=O)C(=O)NCCc1ccc(OC)cc1 (stereo in doubt)
36.1 | > 100 | > 100 | 0.63 | CCCC/C(=C\c1ccc(O)c(OC)c1)C(=O)N[C@@H](Cc1ccccc1)C(=O)C(=O)NCCc1ccc(OC)cc1 (stereo in doubt)
